# Assay results published in patent US9492471B2, “Methods of treating a disease or disorder associated with Bruton'S Tyrosine Kinase” (Celgene Avilomics Research, Inc., priority 2013, dated 2016).
# Where two headings read alike, the source gives them in different places.
# Columns and labels:
# Assay in all cases: HotSpot kinase profiling
# Assay type in all cases: biochemical
# [1] = target: T1, Aurora A (Homo sapiens, UniProt O14965)
# T1 construct: purchased Reaction Biology Corp
# T1 sequence (O14965 1-403): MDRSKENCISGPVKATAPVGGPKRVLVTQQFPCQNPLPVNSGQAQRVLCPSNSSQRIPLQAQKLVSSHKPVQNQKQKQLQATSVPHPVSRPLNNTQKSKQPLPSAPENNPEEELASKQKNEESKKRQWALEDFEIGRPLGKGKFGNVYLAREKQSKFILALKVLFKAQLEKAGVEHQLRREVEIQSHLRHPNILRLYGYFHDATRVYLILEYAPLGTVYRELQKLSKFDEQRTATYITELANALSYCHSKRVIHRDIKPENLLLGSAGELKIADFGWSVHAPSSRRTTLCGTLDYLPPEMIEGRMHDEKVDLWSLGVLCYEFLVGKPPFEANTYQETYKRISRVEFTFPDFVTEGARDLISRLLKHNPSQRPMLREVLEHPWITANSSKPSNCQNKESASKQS
# Method in brief: (§1)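 Percent inhibition, averaged when run more than once and referenced to a DMSO negative control, came from a radioactive filter-binding readout on P81 paper. Reactions of kinase with freshly made substrate and cofactors ran for 2 h at room temperature.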
# [2] = target: T2, ERK1 (Homo sapiens, UniProt P27361)
# T2 construct: purchased Reaction Biology Corp
# Method in brief: as §1
# [3] = target: T3, MARK1 (Homo sapiens, UniProt Q9P0L2)
# T3 construct: purchased Reaction Biology Corp
# Method in brief: as §1
# [4] = target: T4, MNK1 (Homo sapiens, UniProt Q9BUB5)
# T4 construct: purchased Reaction Biology Corp
# Method in brief: as §1
# [5] = target: T5, NEK5 (Homo sapiens, UniProt Q6P3R8)
# T5 construct: purchased Reaction Biology Corp
# T5 sequence (Q6P3R8 1-708): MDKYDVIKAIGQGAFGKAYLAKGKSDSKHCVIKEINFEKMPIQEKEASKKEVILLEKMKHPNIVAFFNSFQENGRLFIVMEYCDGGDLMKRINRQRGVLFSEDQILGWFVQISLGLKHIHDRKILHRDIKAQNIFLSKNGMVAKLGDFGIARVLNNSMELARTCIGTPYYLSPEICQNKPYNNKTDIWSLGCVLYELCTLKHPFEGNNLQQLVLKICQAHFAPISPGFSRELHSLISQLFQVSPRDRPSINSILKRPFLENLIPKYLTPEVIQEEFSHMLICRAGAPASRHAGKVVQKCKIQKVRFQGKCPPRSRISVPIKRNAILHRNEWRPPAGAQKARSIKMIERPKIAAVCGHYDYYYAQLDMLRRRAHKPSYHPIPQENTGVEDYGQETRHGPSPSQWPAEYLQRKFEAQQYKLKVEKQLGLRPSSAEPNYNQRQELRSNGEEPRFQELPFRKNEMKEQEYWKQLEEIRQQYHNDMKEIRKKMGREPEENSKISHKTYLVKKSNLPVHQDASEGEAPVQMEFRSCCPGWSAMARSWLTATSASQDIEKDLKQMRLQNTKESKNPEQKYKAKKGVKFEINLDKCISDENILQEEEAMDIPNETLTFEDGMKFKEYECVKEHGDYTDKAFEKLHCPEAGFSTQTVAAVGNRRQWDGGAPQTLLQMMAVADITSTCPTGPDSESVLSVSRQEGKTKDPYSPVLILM
# Method in brief: as §1
# [6] = target: T6, c-Kit (Homo sapiens, UniProt P10721)
# T6 construct: purchased Reaction Biology Corp
# Method in brief: as §1
# [7] = read-out: % Enzyme Activity (relative to DMSO controls) Run 1
# [8] = read-out: % Enzyme Activity (relative to DMSO controls) Run 2
# T6 sequence (P10721 26-976): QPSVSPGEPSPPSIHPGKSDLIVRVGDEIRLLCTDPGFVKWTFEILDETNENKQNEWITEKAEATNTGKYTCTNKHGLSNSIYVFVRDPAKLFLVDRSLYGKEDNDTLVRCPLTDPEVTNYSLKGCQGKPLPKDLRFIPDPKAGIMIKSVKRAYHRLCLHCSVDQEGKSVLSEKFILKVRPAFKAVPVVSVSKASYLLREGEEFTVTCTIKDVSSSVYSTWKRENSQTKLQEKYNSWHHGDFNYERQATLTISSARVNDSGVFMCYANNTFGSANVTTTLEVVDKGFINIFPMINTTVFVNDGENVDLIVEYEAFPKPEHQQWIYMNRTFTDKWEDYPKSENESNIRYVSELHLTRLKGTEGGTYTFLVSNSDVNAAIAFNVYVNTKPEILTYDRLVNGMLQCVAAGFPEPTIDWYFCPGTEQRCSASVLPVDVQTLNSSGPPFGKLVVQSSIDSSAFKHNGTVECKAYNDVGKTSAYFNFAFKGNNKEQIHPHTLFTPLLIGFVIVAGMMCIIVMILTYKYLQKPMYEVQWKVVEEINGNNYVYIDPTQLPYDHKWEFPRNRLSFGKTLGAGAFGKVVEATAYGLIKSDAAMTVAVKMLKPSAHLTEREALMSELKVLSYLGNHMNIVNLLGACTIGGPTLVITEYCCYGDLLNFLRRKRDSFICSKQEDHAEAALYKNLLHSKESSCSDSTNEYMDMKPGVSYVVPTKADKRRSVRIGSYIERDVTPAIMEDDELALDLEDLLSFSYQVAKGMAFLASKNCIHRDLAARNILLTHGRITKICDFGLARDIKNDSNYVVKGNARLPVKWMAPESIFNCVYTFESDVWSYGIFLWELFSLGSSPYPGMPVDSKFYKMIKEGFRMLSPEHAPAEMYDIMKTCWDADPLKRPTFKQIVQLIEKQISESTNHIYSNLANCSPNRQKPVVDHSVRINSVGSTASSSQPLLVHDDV
# T4 sequence (Q9BUB5 whole entry): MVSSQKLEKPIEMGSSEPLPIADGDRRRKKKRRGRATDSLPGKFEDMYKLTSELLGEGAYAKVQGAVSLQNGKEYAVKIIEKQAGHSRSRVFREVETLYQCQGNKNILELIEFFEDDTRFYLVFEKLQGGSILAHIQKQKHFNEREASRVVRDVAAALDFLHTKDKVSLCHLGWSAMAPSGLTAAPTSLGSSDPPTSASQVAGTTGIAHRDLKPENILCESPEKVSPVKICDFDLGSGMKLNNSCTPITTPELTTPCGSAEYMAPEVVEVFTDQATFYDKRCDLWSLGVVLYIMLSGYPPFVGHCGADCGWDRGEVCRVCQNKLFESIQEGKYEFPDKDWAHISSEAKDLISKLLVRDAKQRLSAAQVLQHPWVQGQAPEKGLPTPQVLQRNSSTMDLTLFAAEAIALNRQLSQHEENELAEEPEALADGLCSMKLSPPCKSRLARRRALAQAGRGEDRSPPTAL
# T3 sequence (Q9P0L2 whole entry): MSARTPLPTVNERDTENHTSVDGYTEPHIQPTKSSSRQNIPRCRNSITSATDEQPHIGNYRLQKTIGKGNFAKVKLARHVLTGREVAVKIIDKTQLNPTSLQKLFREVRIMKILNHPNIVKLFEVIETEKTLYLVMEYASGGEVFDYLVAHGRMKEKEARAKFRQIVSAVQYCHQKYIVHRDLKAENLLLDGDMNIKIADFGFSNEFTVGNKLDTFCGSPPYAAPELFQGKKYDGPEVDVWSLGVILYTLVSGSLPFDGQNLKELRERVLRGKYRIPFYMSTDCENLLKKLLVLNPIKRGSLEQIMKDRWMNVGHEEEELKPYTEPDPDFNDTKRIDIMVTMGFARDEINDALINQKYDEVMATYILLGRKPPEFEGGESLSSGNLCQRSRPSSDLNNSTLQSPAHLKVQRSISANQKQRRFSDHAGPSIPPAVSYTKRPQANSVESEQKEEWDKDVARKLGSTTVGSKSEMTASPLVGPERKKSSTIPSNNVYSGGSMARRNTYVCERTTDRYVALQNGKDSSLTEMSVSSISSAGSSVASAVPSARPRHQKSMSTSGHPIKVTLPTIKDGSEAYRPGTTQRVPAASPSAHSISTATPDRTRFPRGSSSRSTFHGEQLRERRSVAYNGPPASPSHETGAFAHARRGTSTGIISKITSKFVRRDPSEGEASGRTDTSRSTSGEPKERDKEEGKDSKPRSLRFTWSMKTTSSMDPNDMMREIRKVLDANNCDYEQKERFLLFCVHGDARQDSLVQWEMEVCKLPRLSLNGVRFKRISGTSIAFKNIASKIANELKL
# T2 sequence (P27361 whole entry): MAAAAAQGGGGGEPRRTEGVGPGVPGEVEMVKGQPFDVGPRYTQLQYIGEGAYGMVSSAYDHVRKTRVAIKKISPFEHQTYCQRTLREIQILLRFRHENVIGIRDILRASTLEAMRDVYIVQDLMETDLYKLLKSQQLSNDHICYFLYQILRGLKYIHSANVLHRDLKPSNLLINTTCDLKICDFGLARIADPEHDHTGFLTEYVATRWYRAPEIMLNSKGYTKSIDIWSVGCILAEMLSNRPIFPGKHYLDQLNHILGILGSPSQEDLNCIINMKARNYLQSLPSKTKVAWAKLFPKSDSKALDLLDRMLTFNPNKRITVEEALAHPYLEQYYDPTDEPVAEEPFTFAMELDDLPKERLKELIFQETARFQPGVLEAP
structure (smiles),measurement,setting,value
C=CC(=O)Nc1cccc(Nc2nc(Nc3ccc(OCCOC)c(F)c3)ncc2F)c1 [Compound 2],inhibition at 3 µM,[1],88.3%
same,remaining activity at 3 µM,[1]; [7],12.3%
same,remaining activity at 3 µM,[1]; [8],11%
same,inhibition at 3 µM,[2],1.32%
same,remaining activity at 3 µM,[2]; [7],97.4%
same,remaining activity at 3 µM,[2]; [8],99.9%
same,inhibition at 3 µM,[3],5.86%
same,remaining activity at 3 µM,[3]; [7],90.9%
same,remaining activity at 3 µM,[3]; [8],97.3%
same,inhibition at 3 µM,[4],3.98%
same,remaining activity at 3 µM,[4]; [7],97.8%
same,remaining activity at 3 µM,[4]; [8],94.3%
same,inhibition at 3 µM,[5],39.4%
same,remaining activity at 3 µM,[5]; [7],60.2%
same,remaining activity at 3 µM,[5]; [8],60.9%
same,inhibition at 3 µM,[6],21.5%
same,remaining activity at 3 µM,[6]; [7],77.5%
same,remaining activity at 3 µM,[6]; [8],79.5%
